Paper PMC13336041, “Streptavidins Coordinate Biotin Sequestration and Self‐Resistance Within a Biotin‐Pathway Antibiotic Network” (Advanced Science, 2026)

Legend:
[1] = molecular target: streptavidin 2 (Sav2), residues 45-169 (S. avidinii); experiment: not stated; in solution; method not given
[2] = molecular target: BioA (EcBioA) (Escherichia coli, UniProt P12995); experiment: BioA-BioD coupled enzyme assay with KAPA as substrate, LC-MS readout of desthiobiotin (IC50 […]); type: biochemical
[3] = molecular target: BioA derived from S. lydicus (SlBioA); experiment: BioA-BioD coupled enzyme assay with KAPA as substrate, LC-MS readout; type: biochemical, Streptomyces lydicus

Chain of BioA (EcBioA) (P12995 whole entry): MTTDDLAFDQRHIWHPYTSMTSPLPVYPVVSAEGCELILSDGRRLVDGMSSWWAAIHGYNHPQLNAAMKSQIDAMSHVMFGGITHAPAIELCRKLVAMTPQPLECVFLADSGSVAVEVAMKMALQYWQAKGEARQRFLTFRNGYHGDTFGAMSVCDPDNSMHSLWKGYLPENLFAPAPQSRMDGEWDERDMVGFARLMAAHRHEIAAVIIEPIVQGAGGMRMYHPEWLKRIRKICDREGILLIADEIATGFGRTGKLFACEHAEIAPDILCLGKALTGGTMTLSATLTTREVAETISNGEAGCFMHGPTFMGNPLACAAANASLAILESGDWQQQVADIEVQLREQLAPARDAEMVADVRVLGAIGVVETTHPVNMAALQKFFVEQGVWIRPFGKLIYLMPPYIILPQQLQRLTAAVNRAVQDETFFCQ

Row | stoichiometry N [1] | Compound | Ki [2] [µM] | IC50 [3] [µM]
1 | 4 | streptavidin 2 (Sav2), residues 45-169 (domain or fragment) | – | –
2 | – | C[C@H](N)C(=O)CCCC[C@@H](C)C(=O)O [compound 5, α-methyl-KAPA] | 14.9 | 6.5
